Here are results for 24 compounds from patent publication US12637425B2, “Compounds and formulations for treating ophthalmic diseases” (Visus Therapeutics, Inc., priority 2020, dated 2026).

For this test, the target named is T1, Recombinant cryAB(R120G) protein (Homo sapiens, UniProt P02511, R120G).
T1 sequence (P02511 1-175 R120G): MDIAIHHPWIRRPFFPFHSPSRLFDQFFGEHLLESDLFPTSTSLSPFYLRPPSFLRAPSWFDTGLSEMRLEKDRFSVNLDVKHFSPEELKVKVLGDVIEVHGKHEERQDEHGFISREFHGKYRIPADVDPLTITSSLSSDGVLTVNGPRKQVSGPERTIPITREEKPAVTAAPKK
The test can be described thus: Kinetic turbidity aggregation assay of recombinant cryAB(R120G). In kind it is biochemical. Particulars: for inhibition at 25 µM / % Inhibition of Protein Aggregation, 25 μM cmpd: 25 μM compound; for inhibition at 25 µM: read-out: % Inhibition of Protein Aggregation, 25 μM cmpd; for inhibition at 100 µM / % Inhibition of Protein Aggregation, 100 μM cmpd: 100 μM compound; for inhibition at 100 µM: read-out: % Inhibition of Protein Aggregation, 100 μM cmpd; for IC50: inhibition of cryAB(R120G) protein aggregation; for inhibition at 400 µM: read-out: % Inhibition of Protein Aggregation, 400 μM cmpd. The protocol:
Example A-1: Kinetic Turbidity Aggregation Assay of Recombinant cryAB(R120)
Recombinant cryAB(R120G) protein was diluted to 100 μM in assay buffer (50 mM Tris, 100 mM NaCl, 5 mM DTT, 0.01% Triton X-100, 0.05% PEG-8000). Compounds were dissolved in DMSO at 10 mM then typically diluted to 2.5 mM in DMSO and serially diluted 2-fold as necessary. To a 384-well black microplate in quadruplicate was added 81 μL assay buffer, followed by 15 μL protein solution, and 4 μL compound to give a final concentration of 15 μM cryAB(R120G) protein in 4% DMSO. […] N.D. is not determined.

Setting [1] is: 15 μM cryAB(R120G), 42° C., absorbance at 550 nm.
[2] abbreviates: 400 μM compound, 15 μM cryAB(R120G), 42° C., absorbance at 550 nm.

As for `Cn1cc(C(CNS(=O)(=O)c2ccc3cc[nH]c3c2)N2C[C@H]3COC[C@H]3C2)c2ccccc21` (stereo in doubt) [Compound 31, N-(2-(1-methyl-1H-indol-3-yl)-2-(trans-tetrahydro-1H-furo[3,4-c]pyrrol-5(3H)-yl)ethyl)-1H-indole-6-sulfonamide], under setting [1], the inhibition at 25 µM turned out to be 23% and the inhibition at 100 µM was 70%.

For `CC(C)n1cc(C(CNS(=O)(=O)c2ccc3cc[nH]c3c2)N(C)C)c2ccccc21` (centres unmarked) [Compound 1, N-(2-(dimethylamino)-2-(1-isopropyl-1H-indol-3-yl)ethyl)-1H-indole-6-sulfonamide], the IC50 was at most 10 µM. Further, under setting [1], the “% Inhibition of Protein Aggregation, 25 μM cmpd” value (from here on “% Inhibition … 25 μM cmpd”) is 84% and the “% Inhibition of Protein Aggregation, 100 μM cmpd” value is recorded as 99.5%. Moreover, the “% Inhibition of Protein Aggregation, 400 μM cmpd” value under setting [2] was determined as 96.6%.

Regarding `CCn1cc(C(CNS(=O)(=O)c2ccc3cc[nH]c3c2)N(C)C)c2ccccc21` (centres unmarked) [Compound 2, N-(2-(dimethylamino)-2-(1-ethyl-1H-indol-3-yl)ethyl)-1H-indole-6-sulfonamide], the IC50 is at most 10 µM. Moreover, under setting [1], the inhibition at 25 µM came out at 88% and the inhibition at 100 µM is 99.4%. Also, the inhibition at 400 µM under setting [2] was 95%.

Consider `CN(C)C(CNS(=O)(=O)c1ccc2cc[nH]c2c1)c1ccc2[nH]ncc2c1` (centres unmarked) [Compound 3, N-(2-(dimethylamino)-2-(1H-indazol-5-yl)ethyl)-1H-indole-6-sulfonamide], for which, under setting [1], the inhibition at 25 µM turned out to be 58% and the inhibition at 100 µM was 83.7%. The inhibition at 400 µM under setting [2] is 99.1%.

Consider `CN1CCN(S(=O)(=O)c2ccc3cc[nH]c3c2)CC1c1cn(C)c2ccccc12` (centres unmarked) [Compound 4, 3-(4-((1H-indol-6-yl)sulfonyl)-1-methylpiperazin-2-yl)-1-methyl-1H-indole], for which, under setting [1], the inhibition at 25 µM is 66.7% and the inhibition at 100 µM worked out at 62.8%. Besides, under setting [2], the inhibition at 400 µM stood at 91.8%.

As to `Cn1cc(C(CNS(=O)(=O)c2ccc3cc[nH]c3c2)N2CCCC2)c2ccccc21` (centres unmarked) [Compound 5, N-(2-(1-methyl-1H-indol-3-yl)-2-(pyrrolidin-1-yl)ethyl)-1H-indole-6-sulfonamide], the 50% inhibitory concentration (IC50) is at most 10 µM. Further, under setting [1], the inhibition at 25 µM worked out at 99.6% and the inhibition at 100 µM is 99.8%. Further, the inhibition at 400 µM under setting [2] is 97.9%.

Consider `CN(C)C(CNS(=O)(=O)c1ccc2nc[nH]c2c1)c1cn(C)c2ccccc12` (centres unmarked) [Compound 6, N-(2-(dimethylamino)-2-(1-methyl-1H-indol-3-yl)ethyl)-1H-benzo[d]imidazole-6-sulfonamide], for which, under setting [1], the inhibition at 25 µM was 19.5% and the inhibition at 100 µM was -38%. Further, the inhibition at 400 µM under setting [2] amounted to 18.8%.

For the compound `CN(C)C(CNS(=O)(=O)c1ccc2cn[nH]c2c1)c1cn(C)c2ccccc12` (centres unmarked) [Compound 7, N-(2-(dimethylamino)-2-(1-methyl-1H-indol-3-yl)ethyl)-1H-indazole-6-sulfonamide], under setting [1], the inhibition at 25 µM was -21% and the inhibition at 100 µM was -32%. In addition, the inhibition at 400 µM under setting [2] was 56.6%.

For the compound `CN(C)C(CNS(=O)(=O)c1ccc2ccn(C)c2c1)c1cn(C)c2ccccc12` (centres unmarked) [Compound 8, N-(2-(dimethylamino)-2-(1-methyl-1H-indol-3-yl)ethyl)-1-methyl-1H-indole-6-sulfonamide], under setting [1], the inhibition at 25 µM was -37% and the inhibition at 100 µM is -29%. Under setting [2], the inhibition at 400 µM was found to be 74.3%.

Turning to `CN(C)C(CNS(=O)(=O)c1ccc2ncsc2c1)c1cn(C)c2ccccc12` (centres unmarked) [Compound 11, N-(2-(dimethylamino)-2-(1-methyl-1H-indol-3-yl)ethyl)benzo[d]thiazole-6-sulfonamide], under setting [1], the inhibition at 25 µM was -6% and the inhibition at 100 µM is -20%. Besides, the inhibition at 400 µM under setting [2] worked out at 20.5%.

Take `CC(C)n1cc(C(CNS(=O)(=O)c2ccc3[nH]ccc3c2)N(C)C)c2ccccc21` (centres unmarked) [Compound 12, N-(2-(dimethylamino)-2-(1-isopropyl-1H-indol-3-yl)ethyl)-1H-indole-5-sulfonamide]: under setting [1], the inhibition at 25 µM worked out at 30% and the inhibition at 100 µM was 87.1%. The inhibition at 400 µM under setting [2] amounted to 96.1%.

Take `CC(C)n1cc(C(CNS(=O)(=O)c2cccc3[nH]ccc23)N(C)C)c2ccccc21` (centres unmarked) [Compound 13, N-(2-(dimethylamino)-2-(1-isopropyl-1H-indol-3-yl)ethyl)-1H-indole-4-sulfonamide]: under setting [1], the inhibition at 25 µM is -6% and the inhibition at 100 µM came to 32.7%. Moreover, the inhibition at 400 µM under setting [2] worked out at 94.7%.

For the compound `CC(C)n1cc(C(CNS(=O)(=O)c2cccc3cc[nH]c23)N(C)C)c2ccccc21` (centres unmarked) [Compound 14, N-(2-(dimethylamino)-2-(1-isopropyl-1H-indol-3-yl)ethyl)-1H-indole-7-sulfonamide], under setting [1], the inhibition at 25 µM turned out to be 11% and the inhibition at 100 µM is 74.9%. Also, under setting [2], the inhibition at 400 µM amounted to 81%.

Turning to `CN(C)C(CNS(=O)(=O)c1ccc2cc[nH]c2c1)c1ccc2cc[nH]c2n1` (centres unmarked) [Compound 15, N-(2-(dimethylamino)-2-(1H-pyrrolo[2,3-b]pyridin-6-yl)ethyl)-1H-indole-6-sulfonamide], under setting [1], the inhibition at 25 µM is 50% and the inhibition at 100 µM came to 85.8%. Also, under setting [2], the inhibition at 400 µM worked out at 67.6%.

Regarding `CN(C)C(CNS(=O)(=O)c1ccc2cc[nH]c2c1)c1cccc2ncccc12` (centres unmarked) [Compound 17, N-(2-(dimethylamino)-2-(quinolin-5-yl)ethyl)-1H-indole-6-sulfonamide], under setting [1], the inhibition at 25 µM is -10.7% and the inhibition at 100 µM was -13%. In addition, the inhibition at 400 µM under setting [2] is 63.5%.

As for `COc1ccc2c(c1)c(C(CNS(=O)(=O)c1ccc3cc[nH]c3c1)N(C)C)cn2C` (centres unmarked) [Compound 18, N-(2-(dimethylamino)-2-(5-methoxy-1-methyl-1H-indol-3-yl)ethyl)-1H-indole-6-sulfonamide], the IC50 was 10 to 50 µM. Under setting [1], the inhibition at 25 µM was found to be 68% and the inhibition at 100 µM turned out to be 52.3%. The inhibition at 400 µM under setting [2] is 98.5%.

With `CN(C)C(CNS(=O)(=O)c1ccc2cc[nH]c2c1)c1nn(C)c2ccccc12` (centres unmarked) [Compound 19, N-(2-(dimethylamino)-2-(1-methyl-1H-indazol-3-yl)ethyl)-1H-indole-6-sulfonamide], the IC50 was in the range of 10 to 50 µM. Moreover, under setting [1], the inhibition at 25 µM is 34% and the inhibition at 100 µM was 81.5%. Further, the inhibition at 400 µM under setting [2] was found to be 99.9%.

As to `CN(C)C(CNS(=O)(=O)c1ccc2cc[nH]c2c1)c1cn(C)c2ccc(F)cc12` (centres unmarked) [Compound 20, N-(2-(dimethylamino)-2-(5-fluoro-1-methyl-1H-indol-3-yl)ethyl)-1H-indole-6-sulfonamide], under setting [1], the inhibition at 25 µM stood at 49% and the inhibition at 100 µM was determined as 99.2%. Further, the inhibition at 400 µM under setting [2] was 93.4%.

As to `Cc1ccc2c(c1)c(C(CNS(=O)(=O)c1ccc3cc[nH]c3c1)N(C)C)cn2C` (centres unmarked) [Compound 21, N-(2-(1,5-dimethyl-1H-indol-3-yl)-2-(dimethylamino)ethyl)-1H-indole-6-sulfonamide], under setting [1], the inhibition at 25 µM was 76% and the inhibition at 100 µM came out at 99.8%. Under setting [2], the inhibition at 400 µM was 90.7%.

As to `CN(C)C(CNS(=O)(=O)c1ccc2cc[nH]c2c1)c1c[nH]c2ccccc12` (centres unmarked) [Compound 22, N-(2-(dimethylamino)-2-(1H-indol-3-yl)ethyl)-1H-indole-6-sulfonamide], under setting [1], the inhibition at 25 µM is 57% and the inhibition at 100 µM was determined as 99%. The inhibition at 400 µM under setting [2] amounted to 95.9%.

`CC(C)n1cc(C(CNS(=O)(=O)c2ccc3cc[nH]c3c2)N(C)C)c2ccccc21` (centres unmarked) [Compound 23, N-(2-(dimethylamino)-2-(1-isopropyl-1H-indol-3-yl)ethyl)-1H-indole-6-sulfonamide]: the IC50 was in the range of 10 to 50 µM. Under setting [1], the “% Inhibition … 25 μM cmpd” value was 61% and the inhibition at 100 µM was 99%. For the same compound, under setting [2], the inhibition at 400 µM turned out to be 100%.

As to `Cn1cc(C(CNS(=O)(=O)c2ccc3[nH]ccc3c2)N2CCCC2)c2ccccc21` (centres unmarked) [Compound 26, N-(2-(1-methyl-1H-indol-3-yl)-2-(pyrrolidin-1-yl)ethyl)-1H-indole-5-sulfonamide], under setting [1], the inhibition at 25 µM is -4% and the inhibition at 100 µM came to 90.6%.

In the case of `Cn1cc(C(CNS(=O)(=O)c2cccc3[nH]ccc23)N2CCCC2)c2ccccc21` (centres unmarked) [Compound 27, N-(2-(1-methyl-1H-indol-3-yl)-2-(pyrrolidin-1-yl)ethyl)-1H-indole-4-sulfonamide], under setting [1], the “% Inhibition … 25 μM cmpd” value is −35% and the inhibition at 100 µM turned out to be 85%.

With `Cn1cc(C(CNS(=O)(=O)c2cccc3[nH]ccc23)N2CCCC2)c2ccccc21` (centres unmarked) [Compound 28, N-(2-(1-methyl-1H-indol-3-yl)-2-(pyrrolidin-1-yl)ethyl)-1H-indole-4-sulfonamide], under setting [1], the “% Inhibition … 25 μM cmpd” value worked out at 7% and the “% Inhibition of Protein Aggregation, 100 μM cmpd” value was 98.5%.

What is called inhibition is the drop in the measured response relative to a control, in per cent. What is called IC50 is the midpoint of a concentration-inhibition curve.
